According to patent US4560662A, “Streptomyces antibioticus ATCC 31771 and process for obtaining same” (priority 1981, dated 1985):
In brackets after ≈: the same amount, converted by molar mass.

Legend:
[1] = test system: Staphylococcus aureus ATCC 6538 P; assay: Bacteriostatic power in solid medium (MIC), aerobic Gram positive; type: cell-based
[2] = test system: Staphylococcus aureus LRP 14; assay: as above; type: cell-based
[3] = test system: Streptococcus faecalis LRP 7; assay: as above; type: cell-based
[4] = test system: Streptococcus faecalis sub. zymogenes ATCC 12958; assay: as above; type: cell-based
[5] = test system: Streptococcus pneumonieae ATCC 6303; assay: as above; type: cell-based
[6] = test system: Streptococcus pneumonieae LRP 52; assay: as above; type: cell-based
[7] = test system: Streptococcus pneumonieae LRP 53; assay: as above; type: cell-based
[8] = test system: Streptococcus pyogenes ATCC 8668; assay: as above; type: cell-based
[9] = test system: Streptococcus pyogenes LRP 197; assay: as above; type: cell-based
[10] = test system: Corynebacterium diphteriae LRP 24; assay: as above; type: cell-based
[11] = test system: Micrococcus luteus ATCC 9341; assay: as above; type: cell-based
[12] = test system: Micrococcus luteus ATCC 15957; assay: as above; type: cell-based
Source text: (§1) Turning now to an examination of the novel macrolide antibiotics produced according to the present invention, they are all characterized by a bacteriostatic spectrum like that of erythromycin and by the stability in acidic environment, whereby their direct administration by oral route is possible, without having recourse to esters and/or salts, showing the afore mentioned disadvantages and problems. The above is confirmed by the following Table 1, wherein the MIC values are reported, indicating the bacteriostatic power, and by the Table 2, giving the stability values in acidic environment. Without having to be construed in a limiting sense, it seems plausible that the greater stability of the macrolide. antibiotics of the present invention can be attributed to the presence in the molecule of the antibiotic of the neutral sugar oleandrose (J. Antib. (1976) XXIX (7), 728).
(§2) Bacteriostatic power in solid medium of Erythromycin A, Erythromycin B,
(§3) aerobic and anaerobic bacteria, Gram positive and Gram negative minimum
(§4) inhibiting concentrations expressed in mcg/ml.

[13] = test system: Staphylococcus aureus ATCC 14154; assay: as above; type: cell-based
Source text: as §1, §2, §3, §4

Bacillus subtilis LRP 25 = assay: as above; type: cell-based
[14] = test system: Haemophilus influenzae ATCC 19418; assay: Bacteriostatic power in solid medium (MIC), aerobic Gram negative; type: cell-based
Source text: as §1, §2, §3, §4

[15] = test system: Pseudomonas aeruginosa LRP 9; assay: as above; type: cell-based
Source text: as §1, §2, §3, §4

Shigella sonnei LRP 5 = assay: as above; type: cell-based
Source text: as §1, §2, §3, §4

[16] = test system: Neisseria Gonorrhoeae ATCC 19424; assay: as above; type: cell-based
Escherichia coli LRP 50 = assay: as above; type: cell-based; conditions: solid medium, LRP 50
[17] = test system: Klebsiella pneumoniae LRP 54; assay: as above; type: cell-based
[18] = test system: Proteus vulgaris ATCC 6380; assay: as above; type: cell-based
Salmonella typhi LRP 8 = assay: as above; type: cell-based
[19] = test system: Acholeplasma laidlawii ATCC 23206; assay: as above; type: cell-based
[20] = test system: Mycoplasma hominis I ATCC 14097; assay: as above; type: cell-based
[21] = test system: Clostridium perfrigens ATCC 3624; assay: Bacteriostatic power in solid medium (MIC), anaerobic; type: cell-based
[22] = test system: Bacteroides fragilis ATCC 23745; assay: as above; type: cell-based
[23] = test system: Fusobacterium necrophorum ATCC 27852; assay: as above; type: cell-based
physchem = type: physicochemical; conditions: for half-life: acidic environment
Source text: t 1/2 represents the half life time of the antibiotics as determined by
high pressure liquid phase chromatography (HPLC).

3-O-oleandrosyl-5-O-desosaminyl-(8S)-8,19-epoxyerythronolide B [P 15153]
minimum inhibiting concentration ([1]; solid medium, LRP 39): 0.195 µg/mL | minimum inhibiting concentration ([2]; solid medium, LRP 14, Penycilline resistant): 0.195 µg/mL | minimum inhibiting concentration ([3]; solid medium, LRP 7): 0.78 µg/mL | minimum inhibiting concentration ([4]; solid medium, LRP 61): 0.39 µg/mL | minimum inhibiting concentration ([5]; solid medium, LRP 35): 0.049 µg/mL | minimum inhibiting concentration ([6]; solid medium, LRP 52): 0.049 µg/mL | minimum inhibiting concentration ([7]; solid medium, LRP 53): 0.024 µg/mL | minimum inhibiting concentration ([8]; solid medium, LRP 34): 0.049 µg/mL | minimum inhibiting concentration ([9]; solid medium, LRP 197): 0.049 µg/mL | minimum inhibiting concentration ([10]; solid medium, LRP 24): 0.024 µg/mL | minimum inhibiting concentration ([11]; solid medium, LRP 6): 0.024 µg/mL | minimum inhibiting concentration ([12]; LRP 193, Erythromicina resistant): > 25 µg/mL | minimum inhibiting concentration ([13]; LRP 78, Erythromicina resistant): > 25 µg/mL | minimum inhibiting concentration (Bacillus subtilis LRP 25; solid medium, LRP 25): 0.195 µg/mL | minimum inhibiting concentration ([14]; LRP 213): 12.5 µg/mL | minimum inhibiting concentration [15]: > 25 µg/mL | minimum inhibiting concentration (Shigella sonnei LRP 5): > 25 µg/mL | minimum inhibiting concentration ([16]; solid medium, LRP 214): 0.195 µg/mL | minimum inhibiting concentration (Escherichia coli LRP 50): 25 µg/mL | minimum inhibiting concentration ([17]; solid medium, LRP 54): > 25 µg/mL | minimum inhibiting concentration ([18]; solid medium, LRP 13): > 25 µg/mL | minimum inhibiting concentration (Salmonella typhi LRP 8; solid medium, LRP 8): 25 µg/mL | minimum inhibiting concentration ([19]; solid medium, LRP 204): 1.56 µg/mL | minimum inhibiting concentration ([20]; solid medium, LRP 211): > 25 µg/mL | minimum inhibiting concentration ([21]; LRP 206): 3.12 µg/mL | minimum inhibiting concentration ([22]; solid medium, LRP 205, anaerobic): 6.25 µg/mL | minimum inhibiting concentration ([23]; solid medium, LRP 210, anaerobic): 25 µg/mL | t 1/2 (physchem; pH 2.0, 25° C.): 65 h

CC[C@H]1OC(=O)[C@H](C)[C@@H](O[C@H]2C[C@@](C)(OC)[C@@H](O)[C@H](C)O2)[C@H](C)[C@@H](O[C@@H]2O[C@H](C)C[C@H](N(C)C)[C@H]2O)[C@](C)(O)C[C@@H](C)C(=O)[C@H](C)[C@@H](O)[C@]1(C)O [Erythromycin A, reference compound]
MIC ([1]; Staphylococcus aureus, ATCC6538, read-out: minimum inhibiting concentration): 0.049 µg/mL (≈ 0.0668 µM) | MIC ([2]; Staphylococcus aureus, LRP14, read-out: minimum inhibiting concentration): 0.049 µg/mL (≈ 0.0668 µM) | MIC ([3]; Enterococcus faecalis, LRP7, read-out: minimum inhibiting concentration): 0.097 µg/mL (≈ 0.132 µM) | MIC ([4]; Enterococcus faecalis, ATCC12958, read-out: minimum inhibiting concentration): 0.195 µg/mL (≈ 0.266 µM) | MIC ([5]; Streptococcus, ATCC6303, read-out: minimum inhibiting concentration): 0.012 µg/mL (≈ 0.0164 µM) | MIC ([6]; Streptococcus, LRP52, read-out: minimum inhibiting concentration): 0.012 µg/mL (≈ 0.0164 µM) | MIC ([7]; Streptococcus, LRP53, read-out: minimum inhibiting concentration): 0.012 µg/mL (≈ 0.0164 µM) | MIC ([8]; Streptococcus pyogenes, ATCC8668, read-out: minimum inhibiting concentration): 0.012 µg/mL (≈ 0.0164 µM) | MIC ([9]; Streptococcus pyogenes, LRP197, read-out: minimum inhibiting concentration): 0.012 µg/mL (≈ 0.0164 µM) | MIC ([10]; Corynebacterium, LRP24, read-out: minimum inhibiting concentration): 0.006 µg/mL (≈ 0.00818 µM) | MIC ([11]; Micrococcus luteus, ATCC9341, read-out: minimum inhibiting concentration): 0.006 µg/mL (≈ 0.00818 µM) | MIC ([12]; Micrococcus luteus, ATCC15957, LRP 193, Erythromicina resistant, read-out: minimum inhibiting concentration): > 25 µg/mL | MIC ([13]; Staphylococcus aureus, ATCC14154, LRP 78, Erythromicina resistant, read-out: minimum inhibiting concentration): > 25 µg/mL | MIC (Bacillus subtilis LRP 25; Bacillus subtilis, LRP25, read-out: minimum inhibiting concentration): 0.049 µg/mL (≈ 0.0668 µM) | MIC ([14]; Haemophilus influenzae, ATCC19418, LRP 213, read-out: minimum inhibiting concentration): 3.12 µg/mL (≈ 4.25 µM) | MIC ([15]; Pseudomonas aeruginosa, LRP9, read-out: minimum inhibiting concentration): > 25 µg/mL | MIC (Shigella sonnei LRP 5; Shigella sonnei, LRP5, read-out: minimum inhibiting concentration): 12.5 µg/mL (≈ 17 µM) | MIC ([16]; Neisseria gonorrhoeae, ATCC19424, read-out: minimum inhibiting concentration): 0.049 µg/mL (≈ 0.0668 µM) | MIC (Escherichia coli LRP 50; Escherichia coli, LRP50, read-out: minimum inhibiting concentration): 6.25 µg/mL (≈ 8.52 µM) | MIC ([17]; Klebsiella pneumoniae, LRP54, read-out: minimum inhibiting concentration): 25 µg/mL (≈ 34.1 µM) | MIC ([18]; Proteus vulgaris, ATCC6380, read-out: minimum inhibiting concentration): > 25 µg/mL | MIC (Salmonella typhi LRP 8; Salmonella enterica, TYPHI, read-out: minimum inhibiting concentration): 12.5 µg/mL (≈ 17 µM) | MIC ([19]; Acholeplasma laidlawii, ATCC23206, read-out: minimum inhibiting concentration): 0.097 µg/mL (≈ 0.132 µM) | MIC ([20]; Metamycoplasma hominis, ATCC14097, read-out: minimum inhibiting concentration): > 25 µg/mL | MIC ([21]; Clostridium, ATCC3624, LRP 206, read-out: minimum inhibiting concentration): 1.56 µg/mL (≈ 2.13 µM) | MIC ([22]; Bacteroides fragilis, ATCC23745, read-out: minimum inhibiting concentration): 0.195 µg/mL (≈ 0.266 µM) | MIC ([23]; Fusobacterium necrophorum, ATCC27852, read-out: minimum inhibiting concentration): 1.56 µg/mL (≈ 2.13 µM) | half-life (physchem; pH 2): 2 min | half-life (physchem; pH 3): 6 min
